These results are taken from patent publication US20170088623A1, “Prophylaxis Against Cancer Metastasis” (Ingeneron, Inc., priority 2015, published 2017).

Structures are written as SMILES.

Assay [1] concerns CXCR4 receptor. Conditions: animal and human studies; cited from earlier work.
The subject of assay [2] is LCN2 expression in SKBr3 cells. Briefly: LCN2 levels in HER2+ SKBr3 cells by Western blotting. The class given is cell-based, human. Conditions: SKBr3 cells incubated with inhibitor. The source says:
FIGS. 3A-D depict experiments showing that LCN2 (NGAL) is a down-stream target of the HER2/PI-3K/AKT/NF-κB pathway.
In addition, overexpression of dominant negative AKT led to reduced expression of LCN2, while overexpression of dominant active AKT increased LCN2 levels ([…]). […] Iannetti A, et al. “The neutrophil gelatinase-associated lipocalin (NGAL), a NF-kappaB-regulated gene, is a survival factor for thyroid neoplastic cells” Proc Natl Acad Sci USA 105(37) (2008) 14058.
(In general: Immunoblotting shows a protein as a band on a membrane.)

Turning to `c1cc(CN2CCCNCCNCCCNCC2)ccc1CN1CCCNCCNCCCNCC1` [AMD3100], in assay [1], the “hematopoietic stem cell mobilization” value is “able to induce hematopoietic stem cell mobilization”. Consider `Cc1ccc(S(=O)(=O)/C=C/C#N)cc1` [Bay11-7082], for which, in assay [2], the LCN2 expression entry is on record as “reduced in a dose-dependent manner”.
